Results on 6 compounds are retold here after patent EP0487930B1, “Benzo[C]phenanthridinium derivatives” (NIPPON KAYAKU KABUSHIKI KAISHA, priority 1990, dated 1992).

A short description of series [1]: Storage stability of the powder at room temperature. Particulars: stored at room temperature for a long period of time. It is filed as physicochemical. The source says: This compound is a powdery material having a yellowish color immediately after the production thereof. It gradually changes its color into brown. […] This is because a decomposition product, which is difficultly soluble in water, has been formed during the storage of the compound. So, it is not considered that the compound has properties suitable for formulating into a phamaceutical preparation.
2,3-(methylenedioxy)-5-methyl-7-hydroxy-8-ethoxy-benzo[c]phenanthridinium hydrogen sulfate (compound A-0), wherein the acid residue X^- is a hydrogen sulfate ion HSO4^-, is a compound according to the invention, and can be obtained as yellow powder. […] A 0.5 µM aqueous solution of 2,3-(methylenedioxy)-5-ethyl-7-hydroxy-8-methoxy-benzo[c]phenanthridinium chloride, wherein the acid residue X^- is a chloride ion Cl^-, has a pH of 4.3. On the other hand, a 0.5 µM aqueous solution of 2,3-(methylenedioxy)-5-methyl-7-hydroxy-8-methoxy-benzo[c]phenanthridinium hydrogen sulfate according to the invention, wherein the acid residue X^- is a hydrogen sulfate ion HSO4^-, has a pH of 3.9. […] There are no disadvantages in the pharmaceutical activities of such compounds when they have the form of hydrogen salts such as hydrogen sulfate salts. Therefore, the hydrogen salt compounds are practically useful as medicines in view of the enhanced stability thereof.

Another series relates to HeLa S3. Briefly: Growth inhibition activity against tumor cells (Methylene Blue staining). The format is cell-based. Particulars: Homo sapiens. The method, then:
(§1) Various tumor cells were cultured at 37°C for 24 hours in 5% gaseous carbon dioxide, and then subjected to an action of a test drug for 2-4 days. After that, the cells were stained with 0.05% Methylene Blue. The pigment were extracted from the stained cells. The growth inhibition rate of the cells was determined based on absorbance of the extracted pigment at 660 nm, and the 50% growth inhibitory concentration (IC50) was calculated.
(§2) In this table, the abbreviated expressions have the following tumor cells: HeLa S3 = carcinoma colli; MMI = ovarian cancer; SHIN-3 = ovarian cancer; N-231 = small cell lung cancer; Lu-130 = small cell lung cancer; Nakajima = gastric cancer; and the expression "n.t." represents "not tested". These tests were conducted according to a simultaneous comparison test method, except the case of HeLa S3.

The test system of the next series is Lu-130. The series is described as above. It is filed as cell-based. The method, then: as §1, §2
In another series the test system is MMI. Described as above. The format is cell-based. The method, then:
as §1, §2

A further series relates to N-231. The series is described as above. The format is cell-based. The method, then:
as §1, §2

The next series has as its system SHIN-3. The series is described as above. It is filed as cell-based. The method, then: as §1, §2
The next series deals with Nakajima. The series is described as above. The format is cell-based. As to conditions: Nakajima = gastric cancer; test drug for 2-4 days. The method, then:
as §1, §2

Series [2] relates to platelet aggregation caused by platelet activation factor (PAF) in platelet-rich plasma (PRP). The experiment in a line: Inhibition activity on platelet aggregation (serotonin release, anti-PAF activity). It is filed as cell-based, Japanese albino rabbits. Particulars: Oryctolagus cuniculus, PAF 10^-7 M, serotonin release inhibition rate; for inhibition at 25 µg/mL: Concentration 25 µg/ml; for inhibition at 50 µg/mL: Concentration 50 µg/ml; for inhibition at 100 µg/mL: Concentration 100 µg/ml. The method, then:
Platelet-rich plasma (PRP) was collected from Japanese albino rabbits (weighing 3-4 kg). As a platelet aggregation inducer, platelet activation factor (PAF) was used in a final concentration of 10^-7 M. A test drug was added to PRP. After incubation for a definite period of time, PAF was added to cause a platelet aggregation reaction. The reaction was terminated with EDTA. After a centrifugation, the supernatant was removed to obtain platelet precipitates. Distilled water was added to the platelet precipitates, whereby the serotonin remained in the platelet was reacted with an orthophthalaldehyde reagent to form a serotonin-orthophthaladehyde condensate. The condensate was measured at an excited wavelength of 360 nm and at a measurement wavelength of 475 nm. Anti-PAF activity of the test drug was determined by the following equation. Serotonin release inhibition rate (%) =((Test drug + PAF) value - PAF value)/(Blank value - PAF value)x 100 [formula] In the equation, the expression "value" stands for "serotonin value".

Where [3] appears, read: Lu-130 = small cell lung cancer, test drug for 2-4 days, read-out: IC50.
[4] abbreviates: MMI = ovarian cancer, test drug for 2-4 days, read-out: IC50.
Setting [5] is: N-231 = small cell lung cancer, test drug for 2-4 days, read-out: IC50.
Where [6] appears, read: SHIN-3 = ovarian cancer, test drug for 2-4 days, read-out: IC50.

Structures can show the parent of a compound that is named as a salt. Where two headings read alike, the source gives them in different places.

Take `COc1ccc2c(c[n+](C)c3c4cc5c(cc4ccc23)OCO5)c1O` [2,3-(methylenedioxy)-5-methyl-7-hydroxy-8-methoxy-benzo[c]phenanthridinium chloride]: the stability on storage entry in series [1] was “gradually decomposed”.
On to `COc1ccc2c(c[n+](C)c3c4cc5c(cc4ccc23)OCO5)c1O` [Compound A-0, 2,3-(methylenedioxy)-5-methyl-7-hydroxy-8-methoxy-benzo[c]phenanthridinium hydrogen sulfate salt], for which the half-maximal inhibitory concentration (IC50) (commonly the midpoint of a concentration-inhibition curve) in the series with HeLa S3 (HeLa S3) came to 0.15 µg/mL; with Lu-130 it was 0.055 µg/mL; in the series on MMI, 0.12 µg/mL; in the series on N-231, 0.036 µg/mL; in the series on SHIN-3, 0.192 µg/mL.
Turning to `CC[n+]1cc2c(O)c(OC)ccc2c2ccc3cc4c(cc3c21)OCO4` [Compound A-1, 2,3-(methylenedioxy)-5-ethyl-7-hydroxy-8-methoxy-benzo[c]phenanthridinium hydrogen sulfate salt], the IC50 in the series on HeLa S3 (HeLa S3 = carcinoma colli, test drug for 2-4 days, not part of the simultaneous comparison test, read-out: IC50) is 0.177 µg/mL; in the series on Lu-130 (setting [3]), 0.25 µg/mL; in the series on MMI (setting [4]), 0.165 µg/mL; with N-231 (setting [5]), 0.04 µg/mL; in the series with Nakajima, 0.426 µg/mL; with SHIN-3 (setting [6]), 0.17 µg/mL. For the same compound, the inhibition – broadly, the share of the control response that was lost under treatment – at 12.5 µg/mL in series [2] (Concentration 12.5 µg/ml) is 25.2%. Moreover, the inhibition at 25 µg/mL in series [2] turned out to be 49.6%. Besides, in series [2], 50 µg/mL produced 74.1% inhibition. Also, in series [2], testing at 100 µg/mL gave an inhibition of 96.5%.
As to `CCC[n+]1cc2c(O)c(OC)ccc2c2ccc3cc4c(cc3c21)OCO4` [Compound A-2, 2,3-(methylenedioxy)-5-(n-propyl)-7-hydroxy-8-methoxy-benzo[c]phenanthridinium hydrogen sulfate salt], the IC50 in the series with Lu-130 (setting [3]) amounted to 0.108 µg/mL; in the series on MMI (setting [4]), 0.273 µg/mL; with N-231 (setting [5]), 0.085 µg/mL; with Nakajima, 0.777 µg/mL; in the series on SHIN-3 (setting [6]) it was 0.414 µg/mL.
In the series on HeLa S3 (HeLa S3), `CC[n+]1cc2c(O)c(OC)ccc2c2ccc3ccccc3c21.O=S(=O)([O-])O` [Compound A-3, 5-ethyl-7-hydroxy-8-methoxy-benzo[c]phenanthridinium hydrogen sulfate salt] yielded an IC50 of 0.69 µg/mL.
On to `COc1ccc2c(c[n+](C)c3c4ccccc4ccc23)c1O.O=S(=O)([O-])O` [Compound A-4, 5-methyl-7-hydroxy-8-methoxy-benzo[c]phenanthridinium hydrogen sulfate salt], for which the IC50 is 0.26 µg/mL in the series on HeLa S3 (HeLa S3); 0.051 µg/mL in the series with Lu-130; 0.262 µg/mL with MMI; 0.062 µg/mL with N-231; 0.155 µg/mL with SHIN-3. At 25 µg/mL the inhibition in series [2] was 10.9%. Testing at 50 µg/mL in series [2] gave an inhibition of 26.5%. Further, the inhibition at 100 µg/mL in series [2] came out at 46.4%.
